According to PMC7038240 (Antimicrobial Agents and Chemotherapy, 2020):
Like-named read-outs stand apart in the source and are kept apart here.

What was measured:
Assay type in all cases: cell-based
[1] = system: K. pneumoniae; assay: microbe, parasite or virus in culture; settings: Klebsiella pneumoniae, read-out: MIC
[2] = system: P. aeruginosa; assay: microbe, parasite or virus in culture
[3] = system: S. marcescens; assay: microbe, parasite or virus in culture; settings: Serratia marcescens
[4] = system: S. paratyphi; assay: microbe, parasite or virus in culture; settings: Salmonella enterica, strain 527, AmpC/TEM-1
[5] = system: S. typhi; assay: microbe, parasite or virus in culture; settings: Salmonella enterica, strain 26A, AmpC/TEM-1
[6] = system: M. morgannii; assay: organism not typed; settings: strain 769909; OXA-48
Text: The antibacterial activity of cefepime-taniborbactam was compared to that of ceftazidime-avibactam, ceftolozane-tazobactam, and cefepime-tazobactam against a diverse panel of Enterobacterales and P. aeruginosa clinical isolates with defined β-lactamase subtypes (see Table S1 in the supplemental material). IMP-producing strains were excluded, as none of the BLI-protected cephalosporins inhibited IMP sufficiently to provide a clinically relevant rescue of the partner β-lactam, a characteristic also shared by approved BLI-protected carbapenems (meropenem-vaborbactam and imipenem-relebactam). […] The antibacterial activity of the cephalosporins alone was included to ascertain the level of potentiation by the partnered BLI. BLIs were tested at a fixed concentration of 4 μg/ml in all combinations except cefepime-tazobactam, where tazobactam was fixed at a concentration of 8 μg/ml ([38]). The collection comprised 143 clinical isolates collected from 2005 and 2018.
The in vitro antibacterial activity of the β-lactams alone or in combination with the BLIs was determined in cation-adjusted Mueller-Hinton broth (CAMHB) microdilution assays according to CLSI recommendations ([51]). […]. The inocula for the broth microdilution assays were prepared by the broth culture method ([51]). […]

Measured: MIC

CC(C)(O/N=C(\C(=O)N[C@@H]1C(=O)N2C(C(=O)[O-])=C(C[n+]3ccccc3)CS[C@H]12)c1csc(N)n1)C(=O)O [CAZ]
32 µg/mL: [1]; strain SI-F100, SHV-5/TEM-1/CMY-2 | [2]; Pseudomonas aeruginosa, strain 3615, PDC/TEM-1, read-out: MIC | [2]; Pseudomonas aeruginosa, strain Paeβ-04, 100-fold ↑ PDC-2/30% OprD/5.6x ↑ABM, read-out: MIC | [2]; Pseudomonas aeruginosa, strain Paeβ-10, 67-fold ↑ PDC-2/0.1% OprD/5.7x↑ABM, read-out: MIC
4 µg/mL: [2]; Pseudomonas aeruginosa, strain 1129, PDC, read-out: MIC | [2]; Pseudomonas aeruginosa, strain 377860, W.T., read-out: MIC | [2]; Pseudomonas aeruginosa, strain PA2, W.T., read-out: MIC
2 µg/mL: [2]; Pseudomonas aeruginosa, ATCC27853, strain ATCC 27853, W.T., read-out: MIC | [2]; Pseudomonas aeruginosa, strain 164951, W.T., read-out: MIC | [6]
64 µg/mL: [1]; strain DOV, OXA-48 | [1]; strain SI-C05, OXA-48 | [2] | [2]; Pseudomonas aeruginosa, strain 1071703, GES-6, read-out: MIC | [2]; Pseudomonas aeruginosa, strain 1258509, GES-6, read-out: MIC | [2]; Pseudomonas aeruginosa, strain PS-12, VIM-2, read-out: MIC | [2]; Pseudomonas aeruginosa, strain Paeβ-15, 310-fold ↑ PDC-2/10% OprD/4.4x↑XYM, read-out: MIC | [2]; Pseudomonas aeruginosa, strain Paeβ-17, 62-fold ↑PDC-3/30% OprD/10.2x and 9.9x ↑XYM and CDJ, read-out: MIC | [2]; Pseudomonas aeruginosa, strain Paeβ-21, 200-fold ↑ PDC-4/10% OprD/13.5x ↑XYM, read-out: MIC | [2]; Pseudomonas aeruginosa, strain Ps296, VIM-2, read-out: MIC | [3]; strain 134434, AmpC/SHV-12/TEM-1 | [3]; strain 218073, AmpC/SHV-7/TEM-1 | [5]
8 µg/mL: [4]
≥ 256 µg/mL: [1]; strain CDC-0145, NDM | [1]; strain CDC-0148, NDM | [1]; strain CDC-0152, NDM | [1]; strain ESBL8 #1, TEM-1/SHV-12 | [2]; Pseudomonas aeruginosa, strain 10.257, PDC-50, read-out: MIC | [2]; Pseudomonas aeruginosa, strain 11.698, PDC-87, read-out: MIC | [2]; Pseudomonas aeruginosa, strain 11.813, PDC-91, read-out: MIC | [2]; Pseudomonas aeruginosa, strain 13.1716, PDC-74, read-out: MIC | [2]; Pseudomonas aeruginosa, strain 13.1717, PDC-74, read-out: MIC | [2]; Pseudomonas aeruginosa, strain 13.1755, PDC-86, read-out: MIC | [2]; Pseudomonas aeruginosa, strain 13.1760, PDC-77, read-out: MIC | [2]; Pseudomonas aeruginosa, strain 13.1775, PDC-87, read-out: MIC | [2]; Pseudomonas aeruginosa, strain 247.3D, VIM-2, read-out: MIC | [2]; Pseudomonas aeruginosa, strain 1113755, GES-5, read-out: MIC | [2]; Pseudomonas aeruginosa, strain 1138223, GES-19, read-out: MIC | [2]; Pseudomonas aeruginosa, strain 1138337, GES-19, read-out: MIC | [2]; Pseudomonas aeruginosa, strain 1275655, GES-20, read-out: MIC | [2]; Pseudomonas aeruginosa, strain 1300089, GES-19, read-out: MIC | [2]; Pseudomonas aeruginosa, strain PAA1-9G1, GES-5, read-out: MIC | [2]; Pseudomonas aeruginosa, strain PAA1-9G2, GES-5, read-out: MIC | [2]; Pseudomonas aeruginosa, strain Paeβ-18, 600-fold ↑ PDC-3/<0.01% OprD/3.9x and 5.6x ↑ABM and XYM, read-out: MIC
128 µg/mL: [1]; strain ESBL 10, SHV-12/TEM-1 | [1]; strain KIRK, OXA-162 | [2]; Pseudomonas aeruginosa, strain 11.516, PDC-79, read-out: MIC | [2]; Pseudomonas aeruginosa, strain 13.1737, PDC-80, read-out: MIC | [2]; Pseudomonas aeruginosa, strain 5671, VIM-1, read-out: MIC | [3]; strain 192476, AmpC/TEM-1/SHV-5 | [3]; strain 192478, AmpC/SHV-12/TEM-1
16 µg/mL: [2]; Pseudomonas aeruginosa, strain 8273, PDC/TEM-1, read-out: MIC | [2]; Pseudomonas aeruginosa, strain 384743, PDC/TEM-1, read-out: MIC | [2]; Pseudomonas aeruginosa, strain PS-32, VIM-2, read-out: MIC
